Laboratory results from US20200376005A1, “SHIP INHIBITION TO COMBAT OBESITY” (THE RESEARCH FOUNDATION FOR THE STATE UNIVERSITY OF NEW YORK, priority 2013, published 2020).
“Also recorded” adds a separate entry of the source.

How the values were obtained:
[1] = target: T1, SHIP1 (Homo sapiens, UniProt Q92835); assay: SHIP1 Malachite Green phosphatase assay; type: biochemical; settings: for SHIP1 inhibitory activity (in words): Malachite Green phosphate release assay, compared with 3AC
T1 sequence (Q92835 1-1189): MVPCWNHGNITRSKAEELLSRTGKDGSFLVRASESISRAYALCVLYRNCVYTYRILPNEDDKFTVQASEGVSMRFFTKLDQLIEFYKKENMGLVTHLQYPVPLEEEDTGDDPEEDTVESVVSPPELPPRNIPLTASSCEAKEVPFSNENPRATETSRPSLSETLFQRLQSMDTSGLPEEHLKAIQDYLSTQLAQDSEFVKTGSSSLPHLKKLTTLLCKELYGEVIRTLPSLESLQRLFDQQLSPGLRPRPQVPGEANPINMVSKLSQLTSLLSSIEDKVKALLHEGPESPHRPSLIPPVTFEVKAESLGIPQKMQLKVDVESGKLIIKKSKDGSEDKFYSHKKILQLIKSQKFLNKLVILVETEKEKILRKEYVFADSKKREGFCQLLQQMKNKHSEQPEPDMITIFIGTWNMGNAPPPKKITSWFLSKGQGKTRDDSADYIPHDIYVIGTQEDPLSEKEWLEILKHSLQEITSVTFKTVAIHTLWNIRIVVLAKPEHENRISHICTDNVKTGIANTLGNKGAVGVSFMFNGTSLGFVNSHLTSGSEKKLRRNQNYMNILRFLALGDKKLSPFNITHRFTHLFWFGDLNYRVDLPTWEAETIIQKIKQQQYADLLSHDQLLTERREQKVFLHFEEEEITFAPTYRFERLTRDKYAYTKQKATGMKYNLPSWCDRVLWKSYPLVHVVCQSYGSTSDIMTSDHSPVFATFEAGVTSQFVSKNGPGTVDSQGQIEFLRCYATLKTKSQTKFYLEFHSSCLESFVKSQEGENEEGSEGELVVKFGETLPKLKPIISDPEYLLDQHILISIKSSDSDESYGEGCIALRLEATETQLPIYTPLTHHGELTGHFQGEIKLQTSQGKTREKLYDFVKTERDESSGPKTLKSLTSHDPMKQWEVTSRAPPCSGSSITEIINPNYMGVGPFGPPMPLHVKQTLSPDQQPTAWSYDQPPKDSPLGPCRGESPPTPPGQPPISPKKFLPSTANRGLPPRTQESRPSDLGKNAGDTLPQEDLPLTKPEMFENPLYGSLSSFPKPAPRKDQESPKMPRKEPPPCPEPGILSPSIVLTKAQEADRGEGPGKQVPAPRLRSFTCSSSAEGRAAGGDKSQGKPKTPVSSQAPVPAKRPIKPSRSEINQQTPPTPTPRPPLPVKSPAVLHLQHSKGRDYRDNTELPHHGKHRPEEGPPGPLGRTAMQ
Protocol: The standard protocol for measuring SHIP inhibition activity was conducted as described in the materials section of Brooks, R., Fuhler, G. M., Iyer, S., Smith, M. J., Park, M. Y., Paraiso, K. H., Engelman, R. W., and Kerr, W. G., “SHIP1 inhibition increases immunoregulatory capacity and triggers apoptosis of hematopoietic cancer cells,” J Immunol 184:3582-3589 (2010), which is incorporated herein by reference, which protocol is described in pertinent part as follows: Malachite Green Assay was obtained from Echelon Biosciences. Malachite Green forms a colored complex with free phosphate liberated by the SHIP1, SHIP2, or PTEN enzyme reactions. The assay was performed according to manufacturer's protocol. The 3a-aminocholestane (3AC) was dissolved in 100% ethanol and used at a final concentration of 1 mM in the Malachite Green assay.

[2] = tested on: MIR cell; assay: MIR cell induction in treated mice; settings: in vivo
Protocol: [Moto bene: DRV-IV-26=3A5AS].
The solubility of 3AC was assessed by calculating the distribution coefficient (CLogD). This calculation estimates the CLogD for 3AC at 7.17 indicating the molecule is very lipophilic. Thus, we have begun to develop novel 3AC analogs with increased aqueous solubility. One of these compounds, 3A5AS, has a CLogD of 3.33. Lipinski's rules (a common measure of small molecule pharmacokinetics) recommend a ClogD of <5 for in vivo applications.

[3] = K118 treatment of DIO mice on high caloric diet (Example 22); type: in vivo
Protocol: ; As before K118 treatment was performed for one month. After K118 or vehicle treatment we examined weight, (FIG. 35A-C) food intake, (FIG. 35D) gross comparison of fat depots, (FIG. 35E) % body fat, (FIG. 35F) BMD and BMC (FIG. 38A,B). […]. (FIG. 35A,B) The vehicle group retained or increased their body mass during the one month study (FIG. 35C). The weight difference between the K118- and vehicle-treated mice was readily apparent upon visual examination of the mice (FIG. 35C). […]. Obesity is a complex metabolic disorder that predisposes individuals to several co-morbidities, such as type 2 diabetes mellitus. DIO mice are a well-studied model to of diet-related obesity and its leading co-morbidity, type 2 diabetes^12,13. […]. We measured fasting and ad libitum blood glucose and insulin levels and performed the intraperitoneal glucose tolerance test (IGTT) on fasted DIO mice. […]. After 1 month we examined fasting and ad libitum blood glucose, (FIG. 36A-B) fasting and ad libitum insulin, (FIG. 36C-D) the fasting and ad libitum insulin:glucose ratio, (FIG. 36E) and IGTT on fasted DIO mice (FIG. 36F). […]. (FIG. 36A-B). […].

[4] = K118/K189 treatment of 9-12 month old mice (Example 21); settings: aged mice, 10 mg/kg i.p. two times per week, 4 weeks, hydrochloride
From the text: After one month we monitored body weight, % body fat and bone mineral density (BMD) in all groups.

[5] = Pulsatile K118 treatment of aged male and female C57BL/6 mice (Example 22); type: in vivo
[6] = K118/K189 treatment of DIO mice on high fat diet (Example 21); settings: for % body fat: DIO mice on 60% fat diet, 10 mg/kg 2x/week, 1 month, vs pre-treatment
From the text: DIO mice are fed a diet that includes both high quantities of fat as well as sugar. […] DIO mice were purchased from Jackson labs at 12 weeks of age. […] After 1 month on the high fat diet we examined % body fat, (FIG. 28) weight, (FIG. 29) and BMD (FIG. 30).

[7] = Solubility in water / delivery solution; settings: 100% H2O; hydrochloride
[8] = tested on: immunoregulatory cells; assay: Oral administration of K118 in mice, immunoregulatory cells by flow cytometry
[9] = aging C57BL/6 mice of both sexes, 2x/week, 10 mg/kg, 1 month

C[C@@]12CCC[C@H]1[C@@H]1CC[C@H]3C[C@H](N)CC[C@]3(C)[C@H]1CC2 [3A5AS, 3α-amino-5α-androstane]
SHIP1 inhibitory activity (in words) [1]: equally potent; also recorded: retains equal inhibitory activity | concentration inducing a comparable MIR cell increase ([2]; mice): 15 µM | potency at inducing MIR cell numbers ([2]; compared with 3AC): more potent

C[C@@]12CCC[C@H]1[C@@H]1CC[C@H]3C[C@@H](N)CC[C@]3(C)[C@H]1CC2.Cl [K118, 3βAmino-5α-androstane hydrochloride]
SHIP1 inhibitory activity (in words) ([1]; hydrochloride): comparable SHIP1 inhibitory activity; also recorded: significant SHIP1 inhibitory activity | inhibition at 1000 µM ([1]; at 1 mM, tested in triplicate): 59% | BMD or BMC ([3]; C57BL6 mice on a HCD, hydrochloride): did not adversely impact; also recorded: does not affect | body weight ([3]; DIO mice on HCD, 2x/week, 10 mg/kg, one month, vs pre-treatment and vehicle): lost a significant amount of body weight | percent body fat ([3]; DIO mice, vs pre-treatment and vehicle): significantly lower | insulin:glucose ratio ([3]; DIO mice, vs vehicle): significant decrease | leptin production ([3]; HCD mice): reduced leptin production | total cholesterol levels in the serum ([3]; HCD mice): reduced total cholesterol levels | glucose tolerance (IGTT) ([3]; fasted DIO mice, vs vehicle): improved glucose tolerance | blood glucose levels ([3]; fasting and ad libitum, DIO mice, vs pre-treatment and vehicle): significantly reduced | serum insulin levels ([3]; fasting and ad libitum, DIO mice, vs vehicle): significantly lower | fat depot storage ([3]; gross comparison, DIO mice): visibly less fat depot storage | BMD [4]: does not significantly reduce | body fat [4]: quite effective at reducing; also recorded: reduces | body mass (weight) [4]: quite effective at reducing; also recorded: reduces | morbidity or mortality ([5]; K118 treated mice): no significant morbidity or mortality | BMD ([5]; aged male and female mice, hydrochloride): does not significantly reduce; also recorded: does not affect | bone mineral content (BMC) ([5]; aged mice, one month pulsatile treatment, hydrochloride): normal bone density and mineral content; also recorded: does not affect | body fat [5, 9]: quite effective at reducing | body mass (weight) [5, 9]: quite effective at reducing | inflammation / lesions in lungs and small intestine (ileum) ([5]; histology, one month pulsatile treatment, hydrochloride): lacked any evidence of inflammation; also recorded: no significant lesions | % body fat ([6]; hydrochloride): significantly lower; also recorded: reverses diet-induced obesity | weight gain ([6]; DIO mice on high fat diet, 1 month treatment, hydrochloride): did not significantly gain weight; also recorded: prevents diet-induced weight gain | body fat in individual mice ([6]; all K118 treated mice, one month): reduced body fat | mice that lost weight ([6]; individual mice of the K118 group, one month): 3 out of 4 | BMD ([6]; young mice on a high fat diet, hydrochloride): did not adversely impact; also recorded: does not cause a significant reduction | solubility in water [7]: water-soluble; also recorded: water soluble | oral bioavailability ([8]; delivered orally, 10 mg/kg, preliminary studies): bioavailable | neutrophil numbers ([8]; oral 10 mg/kg, hydrochloride, 10 mg/kg): trend for increased; also recorded: Increase | frequency of natural T regulatory cells (nTreg, CD4+CD25+FoxP3+) ([8]; spleen and mesenteric lymph node, oral 10 mg/kg): Significant increases | frequency of myeloid derived suppressor cells (MDSC, Gr1 and Mac1) ([8]; spleen, oral 10 mg/kg): significant increase

C[C@@]12CCC[C@H]1[C@@H]1CC[C@H]3C[C@@H](O)CC[C@]3(C)[C@H]1CC2 [K189, 3β-Hydroxy-5α-androstane, reference compound]
SHIP1 inhibitory activity (in words) [1]: significant SHIP1 inhibitory activity is lost; also recorded: does not have significant SHIP1 inhibitory activity | % body fat [6]: did not show a significant reduction
